Peptide text beside a SMILES is read from it. * marks the point of attachment. Palmitoyl = CCCCCCCCCCCCCCCC(=O)*
What was measured:
[1] = test system: 35 HIV-1 pseudoviruses (subtypes A, B, B', C, G, A/C, A/E, B/C); settings: for IC50: read-out: average IC50 for inhibition of various types of HIV-1 pseudoviruses, average over 35 pseudoviruses
Description: HIV-1 pseudovirus-mediated cell entry inhibition assay: basic steps included: (1) Preparation of HIV-1 pseudovirus: the 293T cells were co-transfected with a plasmid expressing the envelope protein (Env) of HIV-1 strain NL4-3 (i.e., a recombinant expression plasmid obtained by inserting the gene encoding the envelope protein (ENV) of the D36G mutant of the HIV-1 strain NL4-3 in the Table 2 of the Reference 14 listed in the Background Art into the vector pcDNA3.1(−)) and the HIV-1 backbone plasmid pSG3Δenv (provided by the AIDS Reagent Program of National Institutes of Health (NIH), catalog number: 11051) by using a cell transfection reagent, incubated in a cell incubator of 37° C. and 5% CO2 for 6 hours, and then the medium was changed, and the cells were further incubated for 48 hours. The cell culture supernatant containing pseudovirus particles was pipetted and filtered with a 0.45 μm filter to collect the supernatant, then 20% fetal bovine serum (FBS) was added thereto, the final solution was transferred to a polypropylene tube, and stored at −80° C. for ready for use or directly subjected to virus titration. (2) Titration of HIV-1 pseudovirus: the viruses were diluted by 5 folds in a 96-well plate, and 4 replicate wells with 8 gradients were set to a final volume of 100 microliters. The TZM-b1 cells were trypsinized and counted, and the cells were diluted to 1×10^5 cells/ml with DMEM complete medium; 100 μl of cells dilution (containing 15 μg/ml DEAE-dextran) per well were added and cultured at 37° C. and 5% CO2 for 48 hours. The 96-well plate was then taken from the cell culture incubator. The supernatant was discarded from the wells. To each well, 30 μl of a cell lysate was added, and after 10 minutes, 100 μl of a luciferase detection reagent was added. 100 μl of liquid was pipetted from each well and added to a corresponding 96-well white plate, and the luminescence values were read by a microplate photometer. The virus titer was calculated by the Reed-Muench method. (3) Antiviral activity assay: the test substance was dissolved in DMSO and diluted with a cell culture solution by 3 folds, and placed in a 96-well plate at a final volume of […]. 50 μl of a DMEM medium was used in place of the test substance as a negative control. To each well, 100 μl of TZM-b1 target cells solution (containing 15 μg/ml DEAE-dextran) at a concentration of 1×10^5 cells/ml was added, and then 50 μl (corresponding to 100 TCID50 per well) of the HIV-1 pseudovirus obtained above was added. After incubation at 37° C. and 5% CO2 for 48 hours, the relative light units (RLU) of each well were determined by using a luciferase detection reagent (Promega). Inhibition rate (%) and IC50 value were calculated.
Among them, the A, B and C subtypes were the main viruses causing AIDS epidemic in the world, while B/C and A/E recombinant viruses were the main viruses in China. […] Among the Env expression plasmids used for the preparation of pseudoviral, except that the Env expression plasmids used for preparation of PVO, Du156 and CAP 210.2.00.E8 were obtained from the AIDS Reagent Program of NIH in the United states, other plasmids were preserved by the laboratory of Prof. He Yuxian, Institute of Pathogen Biology, Chinese Academy of Medical Sciences, please see the References 13, 14 and 18 listed in the Background Art and articles of Chong et al. (Chong H, Yao X, Zhang C, Cai L, Cui S, Wang Y, He Y. Biophysical property and broad anti-HIV activity of Albuvirtide, a 3-maleimimidoproprotionic acid-modified peptide fusion inhibitor. PLoS One, 2012; 7 (3): e 32599). The preparation of the pseudovirus and the antiviral assay were the same as those in Example 2.1 of Example 2 (HIV-1 pseudovirus-mediated cell entry inhibition assay).

[2] = circular dichroism secondary structure analysis of the inhibitors themselves; format: physicochemical; settings: 20 μM and 40 μM in PBS
Method: (§1) The circular dichroism spectrophotometer was Jasco-815 by JASCO Inc., and the assay method was referred to the papers published by the inventors (see the References 18 and 30 listed in the Background Art). […] The N39 and an inhibitor were separately dissolved in a phosphate buffered saline (PBS) to prepare a PBS solution (pH 7.2) of a concentration of 20 μM. The N39 was mixed with an inhibitor at a volume ratio of 1:1 (final concentration of 10 μM for each), the mixed sample was placed at 37° C. for 30 minutes to fully react, and then the helix content and Tm value of the resultant complex were measured by the circular dichroism spectrophotometer. The scan wavelength range of the device was 195-260 nm with a wavelength interval of 1 nm, and the values measured by scanning for three times were averaged. Based on the CD signals, the interaction between the polypeptides and the helix content were determined. Then, the sample for CD signal measurement was transferred to the temperature scanning sample cell, the program of the CD device was set to temperature scanning with a detection wavelength of 220 nm and scanning range of 20-98° C., and the program scan was performed to obtain the curve of the CD signals vs temperature, based on which the Tm value was calculated. Based on the Tm value, the stability of the formed helical structure of the inhibitor and N39 was judged.
For easy analysis, the α-helix content and the Tm value of the inhibitors were measured at concentrations of 10 μM, 20 μM, and 40 μM (PBS solution), respectively.

[3] = test system: HIV-1 strain NL4-3 (NL4-3D36G); experiment: antiviral activity in serum of macaque after subcutaneous injection; format: in vivo, macaques (rhesus monkeys); settings: 3 mg/kg subcutaneous
Method: The specific method was as follows: 6 experimental macaques (rhesus monkeys) were selected, half male and half female, aged 3-4 years old, weighing 3.4-4.7 kg. […] The serum was separated according to a conventional method. The injection interval of each inhibitor was more than 2 weeks to ensure that there was no residue of the previous analyte. The serum activity against the HIV-1 strain NL4-3 (NL4-3D36G) was measured according to the experimental method of the pseudovirus-based assay in the above examples. The serum was diluted by 3 folds. […] Therefore, the lipopeptides of the present invention were not only potent but also were long-lasting effective.

[4] = test system: HIV-2 strain ROD (infectious); experiment: inhibition of HIV-2; format: cell-based; settings: HIV-2 ROD
Method: (§2) Inhibition rate (%) and IC50 value were calculated.
(§3) In order to further reflect the antiviral advantages of the potent lipopeptides of the present invention, their inhibitory activity against HIV-2 and SIV was determined in the example. The methods of antiviral activity assays used were described in the literatures published by the present inventors (see the References 13 and 30 listed in the Background Art). The molecular cloning plasmid pROD of the HIV-2 strain ROD (HIV-2ROD) was kindly provided by Professor Nuno Taveira from the University of Lisbon, Portugal, and the plasmids expressing the SIV strain SIVpbj (SIVPBJ) and SIV239 envelope proteins (pSIVpbj-Env and pSIV239, respectively) were kindly provided by Professor Xu Jianqing from the Fudan University. The preparation of the infectious ROD was the same as that of the infectious JRCSF in the above section 2.1, and the pseudoviruses SIVpbj and SIV239 were prepared by a method same as that described in the above Examples 2 and 3.

[5] = test system: NL4-3WT pseudovirus; settings: wild type NL4-3WT
Description: HIV-1 pseudovirus-mediated cell entry inhibition assay: basic steps included: (1) Preparation of HIV-1 pseudovirus: the 293T cells were co-transfected with a plasmid expressing the envelope protein (Env) of HIV-1 strain NL4-3 (i.e., a recombinant expression plasmid obtained by inserting the gene encoding the envelope protein (ENV) of the D36G mutant of the HIV-1 strain NL4-3 in the Table 2 of the Reference 14 listed in the Background Art into the vector pcDNA3.1(−)) and the HIV-1 backbone plasmid pSG3Δenv (provided by the AIDS Reagent Program of National Institutes of Health (NIH), catalog number: 11051) by using a cell transfection reagent, incubated in a cell incubator of 37° C. and 5% CO2 for 6 hours, and then the medium was changed, and the cells were further incubated for 48 hours. The cell culture supernatant containing pseudovirus particles was pipetted and filtered with a 0.45 μm filter to collect the supernatant, then 20% fetal bovine serum (FBS) was added thereto, the final solution was transferred to a polypropylene tube, and stored at −80° C. for ready for use or directly subjected to virus titration. […] The TZM-b1 cells were trypsinized and counted, and the cells were diluted to 1×10^5 cells/ml with DMEM complete medium; 100 μl of cells dilution (containing 15 μg/ml DEAE-dextran) per well were added and cultured at 37° C. and 5% CO2 for 48 hours. […]

[6] = target: N39 (NHR-derived polypeptide of gp41) (Human immunodeficiency virus type 1 group M subtype B, UniProt P04578); format: binding, HIV-1; settings: 10 μM each, PBS pH 7.2
Method: as §1

[7] = test system: HIV-1 strain NL4-3 pseudovirus (D36G mutant); format: cell-based
Method: (§4) The supernatant was discarded from the wells. […] Inhibition rate (%) and IC50 value were calculated.

[8] = test system: SIV pseudoviruses SIVpbj and SIV239; experiment: inhibition of SIV pseudoviruses; format: cell-based
Method: as §4, §3

[9] = test system: NL4-3 pseudovirus carrying T-20 resistance mutation site of NHR; experiment: inhibition of T-20 resistant strains; format: cell-based, HIV-1; settings: strains with single or double mutations
[10] = test system: HIV-1 strain JRCSF; format: cell-based; settings: JRCSF replication; relative to T-20
Method: as §2

[11] = test system: HXB2-mediated cell fusion (HL2/3 effector cells, TZM-b1 target cells); format: cell-based, HIV-1; settings: HXB2-mediated cell fusion; relative to T-20
Method: HIV-1 mediated cell fusion inhibition assay: the effector cells (HL2/3 cells) and target cells (TZM-b1 cells) were provided by the AIDS Reagent Program of National Institutes of Health (NIH) (catalog numbers: 1294 and 8129, respectively). The both cells were adherent cells and were cultured in a DMEM cell culture medium containing ampicillin/streptomycin double antibiotics and 10% fetal bovine serum (FBS). The TZM-b1 was first added to a 96-well cell culture plate (1×10^4 cells/well), and cultured overnight at 37° C. and 5% CO2. The test substance was diluted with the DMEM cell culture medium by 3 folds and mixed with HL2/3 effector cells (3×10^4 cells/well), then added to the TZM-b1 target cells, and further cultured for 6 hours to fully fuse. The activity of luciferase (relative fluorescence units, RLU) was then determined using a luciferase reporter gene kit from Promega company according to the instructions. The inhibition rate of each sample at each concentration was calculated, and the half effective inhibitory concentration (IC50 value) was calculated using GraphPad Prism Software 2.01.

Chain of N39 (NHR-derived polypeptide of gp41) (P04578 528-566): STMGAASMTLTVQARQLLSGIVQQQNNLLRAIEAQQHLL

| Compound | IC50 [1] | secondary structure of the inhibitor itself (in words) ([2]; 10 μM) | maximum serum dilution multiple for inhibiting 50% of NL4-3 infectivity ([3]; 2 hour after injection) | maximum serum dilution multiple for inhibiting 50% of NL4-3 infectivity ([3]; 4 hour after injection) | inhibitory activity against HIV-2 (in words) [4] | IC50 [5] | helix content of the complex with N39 [6] | IC50 ([7]; NL4-3D36G mutant, Example 4, read-out: IC50) | inhibitory activity against SIV (in words) [8] | inhibitory activity against T-20 resistant strains (in words) [9] | inhibitory activity against different subtypes of HIV-1 as folds of T-20 ([1]; relative to T-20, from average IC50) | secondary structure of the inhibitor itself (in words) [2] | inhibitory activity as folds of that of T-20 [10] | Tm value of the complex with N39 [6] | inhibitory activity as folds of that of T-20 [11] | inhibitory activity as folds of that of T-20 ([7]; NL4-3 pseudovirus entry, relative to T-20) |
| --- | --- | --- | --- | --- | --- | --- | --- | --- | --- | --- | --- | --- | --- | --- | --- | --- |
| enfuvirtide | 41.4 nM | irregular disorder structure | 45 folds | 46 folds | extremely weak | 152 nM | 48.6% | 13.7 nM | extremely weak | significantly increased by several folds | – | – | – | – | – | – |
| CCCCCCCCCCCCCCCC(=O)NCCCC[C@H](NC(=O)[C@H](CC(=O)O)NC(=O)[C@H](CC(C)C)NC(=O)[C@H](CCC(=O)O)NC(=O)[C@H](CC(C)C)NC(=O)[C@H](CC(C)C)NC(=O)[C@H](CCC(=O)O)NC(=O)[C@H](CCC(N)=O)NC(=O)[C@H](CCC(=O)O)NC(=O)[C@H](CC(N)=O)NC(=O)[C@H](CCCCN)NC(=O)[C@H](CCC(=O)O)NC(=O)[C@H](CCC(N)=O)NC(=O)[C@H](CCC(N)=O)NC(=O)[C@H](CC(N)=O)NC(=O)[C@H](CCC(N)=O)NC(=O)[C@H](CO)NC(=O)[C@H](CCC(=O)O)NC(=O)[C@H](CCC(=O)O)NC(=O)[C@@H](NC(=O)[C@H](CC(C)C)NC(=O)[C@H](CO)NC(=O)[C@H](Cc1c[nH]cn1)NC(=O)[C@@H](NC(=O)[C@H](CC(C)C)NC(=O)[C@H](CO)NC(=O)[C@@H](NC(=O)[C@H](Cc1ccc(O)cc1)NC(C)=O)[C@@H](C)O)[C@@H](C)CC)[C@@H](C)CC)C(N)=O [LP-40] (Ac-YTSLIHSLIEESQNQQEKNEQELLELDK(Palmitoyl)-NH2) | 6.37 nM | – | – | – | only slightly improved | – | 57.7% | – | only slightly improved | had been improved | 7 folds | small amount of helical structure | ~18 folds | 51.3 °C | about 59 folds | ~21 folds |

Source: patent US11680086B2, “Lipopeptide for potently inhibiting HIV, derivative thereof, pharmaceutical composition thereof and use thereof” (Institute of Pathogen Biology, Chinese Academy of Medical …, priority 2017, dated 2023)
